# Results published in PMC4761420 (2015).
# Test system: 5′-TAMRA-AM1A (RNA, riboswitch) GAGGGUGGAACCGCGCUUCGGCGUCCCUC
# Test: fluorescence titration
# Settings: 50 mM NaCl; 50 mM MOPS pH 6.5, 0.01 mM EDTA; 100 nM RNA; apparent
compound,measurement,value
NCCCCNCCCN,Kd,54 ± 12 µM
